Assay results reported in US4113864A (priority 1967, dated 1978).
Converted amounts (≈) assume the structure as drawn. Read-outs that look alike come from different tables or passages of the source.

How the values were obtained:
[1] = test system: rice blast fungi (Pyricularia oryzae); assay type: in vivo
[2] = test system: rice blast fungi (Pyricularia orysae); assay type: in vivo
[3] = test system: Adzuki bean weevils (Callosobruchus chinensis Linne); assay type: in vivo; conditions: emulsifiable concentrate; dip 1 minute; after 24 hours
[4] = test system: carmine mites (Tetranychus telarius Linne); experiment: Test Example 7: leaf dipping test on carmine mites, mortality after 48 hours; assay type: in vivo; conditions: wettable powder, leaf dip 1 minute
Protocol: Mottled kidney bean plants at the 2 leaves-stage, which had elapsed 20 days after sowing were parasitized with a large number of carmine mites (Tetranychus telarius Linne). […] Subsequently, water was added so as not to wither the leaves. After 48 hours, the alive and dead of the mites were observed.

[5] = test system: carmine mite (Tetranychus telarius Linne); experiment: whole plant or invertebrate; conditions: in Phaseolus vulgaris
[6] = test system: carmine mites (Tetranychus terarius Linne); experiment: whole plant or invertebrate; conditions: in Glycine max, 72 h, read-out: Mortality (%) (average of 2 sections)
[7] = test system: northern house mosquitoes (Culex pipiens pallens Coquillett); experiment: whole plant or invertebrate; assay type: in vivo; conditions: granules in water, after 24 hours
Source text: Well water was charged into a 500 cc. beaker. Into the water, full grown larvae of northern house mosquitoes (Culex pipiens pallens Coquillett) were liberated, and the present compounds (12), (16), (17), (23), (25), (26), (27), (29), (30), (85), (87), (88), (89), (94), (95), (96), (97), (100), (102), (103), (104), (105), (106), (107), (108), (109) and (110) in the form of granules were individually charged.

[8] = test system: carmine mites (Tetranychus telarius Linne); experiment: whole plant or invertebrate; conditions: in Phaseolus vulgaris
[9] = test system: rice steam borers (Chilo suppressalis Walker); experiment: Test Example 11: mortality of rice stem borers on sprayed rice plants; assay type: in vivo; conditions: diluted 2,000 times, 6 cc. per pot, wettable powder
Source text: (§1) Rice plants at the tillering stage were individually grown in Wagner pots. Onto the rice plants were adhered and encroached eggs of rice steam borers (Chilo suppressalis Walker) immediately before hatching. After 3 days, the rice plants were individually sprayed with each 6 cc. per pot of solutions prepared by diluting with water to 2,000 times the present compounds (11), (14), (15) and (31) in the form of wettable powders.

[10] = test system: rice stem borers (Chilo suppressalis Walker); experiment: Test Example 20: mortality of rice stem borers on sprayed rice plants; assay type: in vivo; conditions: diluted 2,000 times; 6 cc. per pot; wettable powder; after additional 5 days
Source text: as §1, with “stem” for “steam”, “(58) to (62), (65), (68), (85), (88), (96), (104), (107), (109), (110)” for “(11), (14), (15)”, “(112)” for “(31)”

[11] = test system: rice stem borers (Chilo suppressalis Walker); experiment: Test Example 4: mortality of rice stem borers on sprayed rice plants; assay type: in vivo; conditions: diluted 2,000 times; 6 cc. per pot; wettable powder; 4320 min
Protocol: A rice plant at the tillering stage was grown in a Wagner pot. Onto the rice plant were adhered and encroached eggs of rice stem borers (Chilo suppressalis Walker) immediately before hatching. After 3 days, the rice plant was sprayed with 6 cc. per pot of a solution prepared by diluting with water to 2,000 times the present compound (2) in the form of a wettable powder.

[12] = test system: carmine mites (Tetranychus terarius Linne); experiment: Test Example 16: leaf dipping test on carmine mites, mortality after 48 hours; assay type: in vivo; conditions: wettable powder, leaf dip 1 minute
Protocol: Mottled kidney bean plants at the 2 leaves-stage, which had elapsed 20 days after sowing, were parasitized with a large number of carmine mites (Tetranychus terarius Linne). The leaves of said plants parasitized with the mites were individually dipped for 1 minute in each of solutions prepared by diluting with water the present compounds (35) to (37), (41) to (44) and (46) to (56) in the form of wettable powders. Subsequently, water was added so as not to wither the leaves. After 48 hours, the alive and dead of the mites were observed.

[13] = test system: carmine mite (Tetranychus teralius Linne); conditions: dust 4 kg/10 ares
[14] = test system: carmine mites (Tetranychus terarius Linne); conditions: diluted 2,000 times; 100 Kg/10 ares; field; after 3 days
[15] = test system: Small brown plant hopper (Laoclelphex striatellus Fallen); experiment: Test Example 15: insecticidal effects on small brown plant hopper; assay type: in vivo, Laodelphax striatellus Fallen; conditions: rice seedlings dipped 1 minute in emulsion; after 24 hours
Protocol: Insecticidal effects on Small brown plant hopper (Laoclelphex striatellus Fallen)
Rice seedlings (15-20 cm. in height), which had elapsed 15 days after germination, were individually dipped for 1 minute in emulsions prepared by diluting with water to given concentrations the present compounds (10), (14), (19), (23), (31), (85), (88), (90), (93), (94), (103), (104), (106) and (109) in the form of emulsifiable concentrates. After air-drying, the rice seedlings were individually charged into test glass tubes, and 20-30 plant hoppers (Laodelphax striatellus Fallen) were liberated in each tube, and the tube was covered with gauze.

[16] = test system: carmine mite (Tetranychus telarius Linne); conditions: dust 4 kg/10 ares

Compound: CCOP(=O)(OCC)SCc1ccccc1 [0,0-Diethyl-S-benzyl-phosphorothioate, reference compound]
- Curative value ([1]; 1,000 p.p.m.): 78.6
- Curative value ([2]; 500 p.p.m.): 69.1

Compound: CCOC(=O)CC(SP(=S)(OC)OC)C(=O)OCC (stereo not drawn) [0,0-Dimethyl-S-(1,2-dicarboethoxyethyl) phosphorodithioate, reference compound]
- LC50 (diluted times) [3]: 8,800 diluted times

Compound: CCOP(=S)(OCC)SC1OCCOC1SP(=S)(OCC)OCC (stereo not drawn) [2,3-p-Dioxane S,S-bis-(0,0-diethyl phosphorodithioate), reference compound]
- LC50 (diluted times) [4]: 1,000,000 diluted times

Compound: CCCCSP(=O)(OCC)Oc1ccccc1 (stereo not drawn) [(1), O-ethyl-O-phenyl-S-n-butyl phosphorothiolate]
- Curative value ([2]; 500 p.p.m.): 80.1

Compound: CCOP(=O)(Oc1ccccc1)SCCSc1ccccc1 (stereo not drawn) [(5), O-ethyl-O-phenyl-S-2-phenylthioethyl-phosphorothiolate]
- mortality at 4 kg/10 ares ([5]; 48 h): 100%
- mortality at 4 kg/10 ares ([5]; 120 h): 98.8%
- mortality at 4 kg/10 ares ([5]; 216 h): 83.4%
- mortality at 4 kg/10 ares ([5]; 312 h): 34.4%

Compound: C=CCSP(=O)(OCC)Oc1ccc(C)cc1 (stereo not drawn) [(33), O-ethyl-O-4-methylphenyl-S-allyl-phosphorothiolate]
- mortality at 2000 fold dilution [6]: 90.7%

Compound: CCCSP(=O)(OCC)Oc1cc(C)c(Cl)c(C)c1 (stereo not drawn) [(87)]
- LC50 ([7]; Culex pipiens, read-out: LC50): 0.054 µg/mL (≈ 0.167 µM)
- mortality at 2000 fold dilution [6]: 90.6%
- mortality at 4 kg/10 ares ([8]; 48 h): 100%
- mortality at 4 kg/10 ares ([8]; 120 h): 93.7%
- mortality at 4 kg/10 ares ([8]; 216 h): 82.3%
- mortality at 4 kg/10 ares ([8]; 312 h): 31.6%

Compound: CCOC(=O)C(O)(c1ccc(Cl)cc1)c1ccc(Cl)cc1 [Ethyl 4,4'-dichlorobenzilate, reference compound]
- LC50 (diluted times) [4]: 100,000 diluted times

Compound: COP(=S)(OC)Oc1ccc([N+](=O)[O-])c(C)c1 [O,O-dimethyl-O-3-methyl-4-nitrophenyl phosphorothioate]
- mortality at 2000 fold dilution ([9]; Chilo suppressalis, 72 h): 94.3%
- Mortality (%) [10]: 94.3%
- Mortality (%) [11]: 94.3%

Compound: O-ethyl-O-2,4-dichlorophenyl-S-N-phthalimidemethyl-phosphorothiolate [(53)]
- LC50 (times diluted) [12]: 1,000,000 times diluted

Compound: O-ethyl-O-2,4-dichlorophenyl-S-allyl phosphorothiolate [(49)]
- LC50 (times diluted) [12]: 60,000 times diluted

Compound: O-ethyl-O-2,4-dichlorophenyl-S-sec-butyl-phosphorothiolate [(50)]
- LC50 (times diluted) [12]: 90,000 times diluted

Compound: O-ethyl-O-2-chlorophenyl-S-2-phenylethyl phosphorothiolate [(13)]
- Mortality (%) ([13]; After 2 days): 100%
- Mortality (%) ([13]; After 5 days): 95.3%
- Mortality (%) ([13]; After 9 days): 92.1%
- Mortality (%) ([13]; After 13 days): 61.2%
- LC50 (diluted times) [4]: 1,000,000 diluted times

Compound: O-ethyl-O-2-chlorophenyl-S-allyl-phosphorothiolate [(46)]
- LC50 (times diluted) [12]: 80,000 times diluted

Compound: O-ethyl-O-2-chlorophenyl-S-propargyl phosphorothiolate [(48)]
- LC50 (times diluted) [12]: 150,000 times diluted

Compound: O-ethyl-O-2-chlorophenyl-S-sec-butyl-phosphorothiolate [(47)]
- LC50 (times diluted) [12]: 15,000 times diluted

Compound: O-ethyl-O-3,4-dimethyl-S-2-phenylthioethylphosphorothiolate [(52)]
- LC50 (times diluted) [12]: 900,000 times diluted

Compound: O-ethyl-O-3,4-dimethylphenyl-S-2-phenylethyl-phosphorothiolate [(9)]
- Mortality (%) ([13]; After 2 days): 100%
- Mortality (%) ([13]; After 5 days): 99.2%
- Mortality (%) ([13]; After 9 days): 83.4%
- Mortality (%) ([13]; After 13 days): 53.4%
- LC50 (diluted times) [3]: 200,000 diluted times

Compound: O-ethyl-O-3,5-dimethyl-4-chlorophenyl-S-sec-butyl phosphorothiolate [(54)]
- LC50 (times diluted) [12]: 70,000 times diluted

Compound: O-ethyl-O-4-chlorophenyl-3-sec-butyl phosphorothiolate [(44)]
- LC50 (times diluted) [12]: 330,000 times diluted

Compound: O-ethyl-O-4-chlorophenyl-S-2-ethylthio-ethyl-phosphorothiolate [(51)]
- LC50 (times diluted) [12]: 1,200,000 times diluted

Compound: O-ethyl-O- 3,4-dimethylphenyl-s-(sec)-butyl phosphorothiolate [(37)]
- LC50 (times diluted) [12]: 50,000 times diluted

Compound: O-ethyl-O- 3-methyl-4-chlorophenyl-S-2-phenylethyl-phosphorothiolate [(12)]
- LC50 [7]: 0.02 p.p.m.
- LC50 (diluted times) [3]: 180,000 diluted times
- Mortality (%) (average of 2 sections) [14]: 100.0%

Compound: O-ethyl-O- 3-methylphenyl-S-2-phenylethyl phosphorothiolate [(10)]
- LC50 (times diluted) [15]: 512,000 times diluted
- LC50 (diluted times) [3]: 300,000 diluted times
- LC50 (diluted times) [4]: 6,000,000 diluted times

Compound: O-ethyl-O- 3-methylphenyl-S-(sec)-butyl-phosphorothiolate [(42)]
- LC50 (times diluted) [12]: 1,100,000 times diluted

Compound: O-ethyl-O- 3-methylphenyl-S-allyl-phosphorothiolate [(41)]
- LC50 (times diluted) [12]: 1,100,000 times diluted

Compound: O-ethyl-O- 4-(tert)-butylphenyl-S-allyl phosphorothiolate [(36)]
- LC50 (times diluted) [12]: 540,000 times diluted

Compound: O-ethyl-O- 4-chlorophenyl-S-2-phenylethyl phosphorothiolate [(11)]
- Curative value ([1]; in vivo): 87.1
- Mortality (%) ([9]; 4320 min): 96.3%
- LC50 (diluted times) [3]: 105,000 diluted times
- LC50 (diluted times) [4]: 256,000 diluted times

Compound: O-ethyl-O- 4-chlorophenyl-S-allylphosphorothiolate [(43)]
- LC50 (times diluted) [12]: 11,000 times diluted

Compound: O-ethyl-O- 4-methylphenyl-S-(sec)-butyl-phosphorothiolate [(34)]
- Curative value ([1]; in vivo): 97.2
- Mortality (%) (average of 2 sections) [14]: 96.4%

Compound: O-ethyl-O- 4-methylphenyl-S-propargyl phosphorothiolate [(35)]
- LC50 (times diluted) [12]: 12,000,000 times diluted

Compound: O-ethyl-O-phenyl-S-2-phenylethyl-phosphorothiolate [(4)]
- Mortality (%) ([16]; After 2 days): 100%
- Mortality (%) ([16]; After 5 days): 92.4%
- Mortality (%) ([16]; After 9 days): 81.3%
- Mortality (%) ([16]; After 13 days): 70.3%

Compound: O-ethyl-O-phenyl-S-allylphosphorothiolate [(3)]
- Curative value ([2]; in vivo): 98.6

Compound: O-ethyl-O-phenyl-S-sec-butyl phosphorothiolate [(55)]
- LC50 (times diluted) [12]: 90,000 times diluted

Compound: Phenylmercuric acetate [reference compound]
- Curative value ([1]; in vivo): 47.7
- Curative value ([2]; in vivo): 47.6
